Experimental data from patent publication EP0324328B1, “Use of the N-n-butyl derivative of desoxynojirimycin in the manufacture of a medicament inhibiting HIV-Virus” (priority 1987, dated 1989).

What was measured:
Type in all cases: cell-based
[1] = tested on: B16-F10 murine melanoma cells; assay: Incorporation of radiolabeled galactose, mannose, glucose and thymidine into cells; conditions: result in words; for galactose incorporation into the cells: radiolabeled galactose; for glucose utilization/inhibition: radiolabeled glucose; for mannose utilization: radiolabeled mannose
[2] = tested on: HIV-2; assay: Virus titer (TCID) of HIV-2 infected T-cell cultures grown with test compound; conditions: control 10^6; for HIV-2 (TCID): Table 2, 0.10 mg/ml, 10^4 T-45 or MOLT-4 cells (identical results), 10^4 TCID inoculum, after day 10; for VIRUS TITER HIV-2: Table 3, Example 2, 0.1 mg/ml, T-45 and MOLT-4 cells, 10^4 TCID on 10^4 cells
Experimental: (§1) Cell free suspensions of the HIV were prepared from infected cultures. The concentration of infectious particles was estimated on end-point titration assay using serial ten-fold dilutions. The approximate number of infectious particles in each preparation was determined by the highest dilution which contains infectious HIV as determined by synctial formation, cytopathicity [Leonard et al., Proc. Natl. Acad. Sci. USA 85, 3570-3574 (1988); Barre-Sinoussi et al., Science 220, 868-870 (1983)] and HIV antigen [Karpas et al., Lancet 1, 695-697 (1985)] synthesis after 10 days of culture with 10^4 T-cells. This represents the concentration of infectious particles, herein defined as the tissue culture infectious dose (TCID).
The assay was run in 96 well plastic microtiter plates in which 0.2 ml of culture medium containing 10^4 T-cells are seeded into each well. RPMI-1640 supplemented with 10% fetal calf serum was used as the culture medium. In each assay, 6 wells are used. Three (1-3) are infected with 10^4 TCID/well of HIV-1 or HIV-2 and to the other three (4-6) culture medium alone is added. Medium is changed at the same intervals for each test compound. The detailed assay procedure is illustrated in Figures 1 and 2.
(§2) The efficacy of the test compounds used in this example was assessed as follows: 0.2 ml of culture medium containing 10^4 T-45 cells were transferred into each well of a 96-well flat-bottomed tissue-culture plastic plate and the cells were allowed to settle at 37°C (see Figure 1). After 4 hours the media were aspirated and replaced with media which contained the test compound. Following overnight incubation the media was aspirated and 10^4 TCID of virus (HIV-1 or HIV-2) was added to each well. Incubation was continued at 37°C in 5% CO2 for 1 hour. Thereafter, growth media containing the various compounds were added and incubation at 37°C was continued. On the fourth day the cell suspensions from each well were split and seeded into two new wells and 0.2 ml of fresh media with compounds was added. This was repeated on the seventh day. Cells were examined by microscopy during days 1 to 10 for the presence of syncytia, growth rate and the appearance of the cytopathic effect (CPE) (giant cells, pycnotic nuclei, loss of refractility). CPE (100%) was defined as no round, refractile, uniform cells remaining; only giant, ballooned pyknotic cells were present. The viability of HIV infected cultures was determined by a rough count/estimate of cells which underwent CPE in relation to round refractile uniform (normal) cells in a given culture. Cells in wells which were incubated with compounds which appeared to inhibit or reduce HIV replication and in which there was marked cell proliferation were either transferred to larger wells (of a 24-well plate) or divided in order to maintain an approximate constant cell density to promote continuous cell division.
That is, HIV-1 was first passaged in T-45 cells; likewise, HIV-1 was first passaged in MOLT-4 cells. The same passaging was done with HIV-2. The test compounds were used at a concentration of 0.1 mg/ml. 10^4 TCID of HIV-1 and separately of HIV-2 were used to infect 10^4 cells. Upon completion of the test, the virus titers were as follows: TABLE 3

[3] = tested on: HIV; assay: Inhibition of HIV-associated cytopathic effect (CPE) in T-45 cells; conditions: HIV infected T-45 cells, various concentrations (Fig. 3); result in words
Experimental: FIG. 3 is a graphical representation in which the inhibition of HIV associated CPE (―% CPE) reduction) and test compound-associated cytotoxicity (---% cell death) is plotted against the media concentration in mg/ml of several test compounds (drugs). The cell viability data was determined for non-HIV infected cells. The test compounds were the N-methyl-, N-ethyl-, and N-butyl derivatives of deoxynojirimycin (DNJ), castanospermine (Cast), N-(5-carboxymethyl-1-pentyl)-1,5-imino-L-fucitol (LFT) and 1,4-dideoxy-1,4-imino-L-arabinitol (LAB).
After a suitable period of incubation, the cultures are scored for the presence of so-called syncytial cells (giant cells). Typical examples of such a test for the evaluation of inhibitors of HIV have been disclosed by Fung et al., Bio/Technology 5, 940-946 (1987); Tyms et al., Lancet, October 31, 1987, pp. 1025-1026; Gruters et al., Nature 330, 74-77 (1987); and Walker et al., Proc. Natl. Acad. Sci. USA 84, 8120-8124 (1987).
as §2

[4] = tested on: HIV; assay: TCID titre of culture supernatants of T-45 cells infected with HIV, Fig. 4; conditions: for reduction of TCID titre of culture supernatants: T-45 cells infected with HIV, after 10 days in culture, result in words; for reduction of the virus titer / yield of infectious HIV: at non-cytotoxic concentrations
Experimental: FIG. 4 is a graphical representation in which the viral titer (determined as TCID) is plotted against the concentration in mg/ml of various of the test compounds (drugs) of FIG. 3 in panels (a) and (b).
as §1, §2
Quantitative data on the effect of the various compounds on the non-infected cells (cytotoxicity) was obtained by comparison of their growth rate to control cells not exposed to drugs (Table 1). Fig. 4 and Table 2 show the relation between the TCID titre of culture supernatants of T-45 cells infected with HIV after 10 days in culture and the concentration of drug. […] The inability of any of these drugs alone to totally reduce the TCID may be due to heterogeneity of virus production or spread. […] In addition, the MOLT-4 cell line was also used.

[5] = replicate tests (Tables 2 and 3), two virus strains, two cell lines

Row | SMILES | galactose incorporation into the cells [1] | glucose utilization/inhibition [1] | mannose utilization [1] | ^3H-Thymidine uptake into the cells [1] | HIV-2 (TCID) [2] | VIRUS TITER HIV-2 [2] | effect on CPE formation [3] | reduction of TCID titre of culture supernatants [4] | reduction of the virus titer / yield of infectious HIV [4] | effectiveness as an inhibitor of HIV compared with N-ethyl deoxynojirimycin [4, 5] | effectiveness as an inhibitor of HIV compared with N-methyl-deoxynojirimycin [4, 5]
1 | CN1C[C@H](O)[C@@H](O)[C@H](O)[C@H]1CO [MeDNJ, N-methyl-deoxynojirimycin] | only slightly inhibitory | inverted dose-response curve | either stimulated incorporation or, conservatively, had no effect | inhibited incorporation at 1.0 mM | 10^2 TCID | 10^2 | bell shaped dose-dependence | reduced the TCID only partially | two to four log-order of reduction |  | 
2 | CCCCN1C[C@H](O)[C@@H](O)[C@H](O)[C@H]1CO [BuDNJ, N-n-butyl-deoxynojirimycin] | substantially inhibited galactose incorporation into the cells at 1.0 mM or less | little or no effect | inhibited mannose utilization | not affected by N-butyl-DNJ up to 2.0 mM | <10 TCID | 10 | completely prevented CPE in the HIV infected cells at all concentrations tested | negligible virus TCID titres | over five logs | three log orders more effective | two log orders more effective
